Laboratory results published in the NIST ThermoML archive (doi:10.1021/acs.jced.7b00222).
Values joined by “and” are separate entries in the source; they are usually repeats but may differ in a detail not shown here. Equal entries are not always repeated. Numbers after ± are expanded uncertainties.

Settings: Liquid, Optical interferometry

Compound: CO [methanol]
- thermal diffusivity (297.95 K, 5300000 kPa): 2.19e-07 ± 1.2e-08 m2/s
- thermal diffusivity (298.15 K, 4220000 kPa): 2.17e-07 ± 1.2e-08 m2/s
- thermal diffusivity (299.15 K, 0 kPa): 9.7e-08 ± 7e-09 m2/s
- thermal diffusivity (299.15 K, 880000 kPa): 1.59e-07 ± 1.2e-08 m2/s
- thermal diffusivity (299.15 K, 2430000 kPa): 1.86e-07 ± 1.4e-08 m2/s
- thermal diffusivity (299.15 K, 3100000 kPa): 1.92e-07 ± 1.3e-08 m2/s
- thermal diffusivity (299.15 K, 3120000 kPa): 1.99e-07 ± 1.3e-08 m2/s
- thermal diffusivity (299.15 K): 9.7e-08 ± 6e-09 m2/s
- thermal diffusivity (299.75 K, 5000000 kPa): 2.37e-07 ± 4.5e-08 m2/s
- thermal diffusivity (299.85 K, 400000 kPa): 1.32e-07 ± 1e-08 m2/s
- thermal diffusivity (300.15 K, 370000 kPa): 1.35e-07 ± 1e-08 m2/s
- thermal diffusivity (300.75 K, 1750000 kPa): 1.8e-07 ± 1e-08 m2/s
- thermal diffusivity (300.95 K, 860000 kPa): 1.57e-07 ± 1.4e-08 m2/s
- thermal diffusivity (301.05 K, 1290000 kPa): 1.7e-07 m2/s and 1.66e-07 m2/s
